Experimental data as given in patent publication US8415371B2, “Methods and kits for treating cluster headache disorders” (priority 2008, dated 2013).
Entries after “also recorded” stand apart in the source; their conditions may differ.

Experiments:
[1] = cited from earlier work
[2] = daily prophylactic administration over time; rare; cited from earlier work
[3] = tested on: subjects diagnosed with chronic cluster headache disorder; test: Treatment of chronic cluster headache disorder with bromolysergide, two adult subjects (Example 1); assay type: in vivo, human; details: once every five days
Description: The desired amount of bromolysergide (hydrochloride salt) was mixed with dextrose and placed into gelatin capsules for administration to subjects suffering from chronic cluster headache disorder.
Bromolysergide was administered to two adult subjects diagnosed with chronic cluster headache disorder during a cluster period. A dose of 2 mg of 2-bromolysergic acid dethylamide (30 μg/kg body weight) was administered orally to subject 1 three times, once every five days. A dose of 2.5 mg of 2-bromolysergic acid dethylamide (approximately 30 μg/kg body weight) was administered orally to subject 2 three times, once every five days.
Subjects were asked to rate their symptoms following administration of bromolysergide.

[4] = tested on: treatment-refractory cluster headache patients; test: Side effects, consciousness, thought disturbances and vital signs observed three to four hours after bromolysergide administration (Example 3); assay type: in vivo, human
From the text: (§1) Patients referred to the Pain Clinic at the Hannover Medical School were identified with cluster headache if they met the respective diagnostic criteria of the international classification of headache disorders (Headache Classification Committee of the International Headache Society (2004) The International Classification of Headache Disorders, 2nd edn. Cephalalgia 24 Suppl 1:1-160). In addition, all patients were non-responders to verapamil and other prophylactic medications (i.e., refractory to the prophylactic medications listed in Table 1 for each patient). In accordance with German national and local ethics committee rules, all patients signed an informed consent, in which the patients declared their agreement to participate in this project on the compassionate use of bromolysergide for cluster headache. Patients kept a standardized daily diary of cluster headache symptoms starting at least two weeks prior to bromolysergide administration. Bromolysergide (hydrochloride salt) was manufactured by THCpharm GmbH (Frankfurt am Main, Germany). A purity of >99.2% was identified by HPLC and other analytical tests. Bromolysergide hydrochloride 30 μg per Kg body weight was dissolved into distilled water and then given once every 5 days for a total of 3 doses per os. Alterations in consciousness, thought disturbances, and vital signs (blood pressure, heart rate) were measured during a three to four hour observational period following administration. Patients were asked to continue completing daily headache diaries for the next months or until they experience 3 days of attacks of a starting new cluster series.

[5] = tested on: treatment-refractory cluster headache patients; test: Compassionate use of bromolysergide in treatment-refractory cluster headache patients, daily headache diary (Example 3); assay type: in vivo, human; details: for continuous period of attack quiescence: indicates transition from chronic to episodic form
From the text: as §1

[6] = subject 1, 2 mg (30 μg/kg) orally three times, for ten weeks
[7] = subject 2, 2.5 mg orally three times

For CC[C@@H](CO)NC(=O)[C@@H]1C=C2c3cccc4c3c(cn4C)C[C@H]2N(C)C1 [methysergide], the “dose estimated to be equivalent to 25 micgrograms LSD” value ([1]; Abrahamson et al., J. Asthma Res. 3:81 (1965)) is given as “ca. 4 mg”, the hallucinogenic effect ([1]; supra-therapeutic doses) is given as “hallucinogenic” and the “serious medical complication in the longstanding user” value [2] is given as “fibrotic reactions (retroperitoneal, pulmonary, pleural, and cardiac)”.

With CCN(CC)C(=O)[C@@H]1C=C2c3cccc4[nH]c(Br)c(c34)C[C@H]2N(C)C1 [bromolysergide, 2-bromolysergic acid diethylamide] the “rating of results (Clinical Global Impressions Scale)” value ([3]; subject 1, chronic cluster headache, 2 mg (30 μg/kg) orally three times) was “minimally improved”, the “duration of improvement before reverting to pre-treatment form” value ([3]; subject 1, 2 mg (30 μg/kg) orally three times) was “ten” and the reduction in pain [3, 6] was 30%. For the same compound, the “reduction of attack frequency” value [3, 6] was 30%, the “rating of results (Clinical Global Impressions Scale)” value ([3]; subject 2, chronic cluster headache for more than 6 years, 2.5 mg (approximately 30 μg/kg) orally three times) was “marked/very much improved” and the “International Headache Society criteria for chronic cluster headache disorder after treatment” value [3, 7] was “no longer met criteria”. For the same compound, the remission of symptoms [3, 7] was “complete or nearly complete remission of symptoms”, the “time free of attacks” value ([3]; subject 2, 2.5 mg orally three times, at last follow-up) was “more than 3 months” and the “duration of side effect” value ([4]; each of the five subjects, 30 μg/kg per os) was “about 2 hours”. The “changes to heart rate and blood pressure” value ([4]; five patients, during bromolysergide treatment) was “No changes”, the “duration of mild subjective effects” value ([4]; five patients, 30 μg/kg per os) was “one to two” and the “hallucinogenic or psychotic effects” value ([4]; five patients, 30 μg/kg per os) was “No visual hallucinations or distortions occurred nor was there any evidence of delusional thinking or overt psychosis; also recorded: non-hallucinogenic”. The other side effects ([4]; five patients, apart from very mild alterations of subjective state and mild to no sympathetic reactions) was “no other side effects were observed”, the subjective feelings recorded ([4]; most of the patients, 30 μg/kg per os) was ““flabby” or “light drunk” feelings” and the subjective effects noted ([4]; patient S2, 30 μg/kg per os) was ““funny” feeling, tense muscles, and sweating of their hands”. For the same compound, the Vital signs ([4]; subject S1, 2.5 mg ×3) was “unchanged”, the Side effects ([4]; subject S1, 2.5 mg ×3, cell wraps into r25: “flabby feeling”) was ““flabby” and the Vital signs ([4]; subject S2, 2.0 mg ×3) was “unchanged”. For the same compound, the Side effects ([4]; subject S2, 2.0 mg ×3, cell wraps into r25: “funny feeling”) was ““funny”, the Side effects ([4]; subject S3, 3.1 mg ×3) was ““slightly” and the Vital signs ([4]; subject S3, 3.1 mg ×3) was “unchanged”. For the same compound, the Side effects ([4]; subject S4, 3.1 mg ×3) was ““slightly”, the Vital signs ([4]; subject S4, 3.1 mg ×3) was “unchanged” and the Side effects ([4]; subject S5, 2.2 mg ×3) was ““slightly”. The Vital signs ([4]; subject S5, 2.2 mg ×3) was “unchanged”, the “overall effect on cluster headache cycle, frequency and intensity of attacks” value ([5]; five treatment-refractory patients, three single doses of 30 μg/kg within 10 days, FIG. 1) was “can either break a cluster headache cycle or considerably improve the frequency and intensity of attacks; also recorded: quite effective at breaking cluster headache cycle; also recorded: can break a cluster headache cycle, convert a chronic cluster headache disorder into an episodic cluster headache disorder, and extend the remission period” and the attack frequency ([5]; patient S1, chronic form, 30 μg/kg per os ×3) was “did not show this pronounced attack reduction”. For the same compound, the “decrease of attack intensity” value ([5]; patient S1, chronic form, 30 μg/kg per os ×3, within the first 4 months, continued to drink alcohol) was “about 30%”, the “outcome of cluster period” value ([5]; patient S2, episodic form, 30 μg/kg per os once every 5 days, 3 doses) was “termination of their cluster period” and the remission period ([5]; patient S2, episodic form, 30 μg/kg per os ×3, at last follow-up and continuing) was “six”. For the same compound, the attack frequency ([5]; patient S3, chronic form, 30 μg/kg per os ×3) was “pronounced reduction of attack frequency”, the “pain intensity during remaining occasional attacks” value ([5]; patient S3, 30 μg/kg per os ×3) was “such reductions of pain intensity during their remaining occasional attacks that they no longer administered an acute intervention” and the “continuous period of attack quiescence” value ([5]; patient S3, 30 μg/kg per os ×3) was “greater than 4 week”. The attack frequency ([5]; patient S4, chronic form, 30 μg/kg per os ×3) was “profound reduction of attack frequency”, the “continuous break of attacks” value ([5]; patient S4, 30 μg/kg per os ×3) was “did not show a continuous 4-week break of attacks” and the “pain intensity during remaining occasional attacks” value ([5]; patient S4, 30 μg/kg per os ×3) was “such reductions of pain intensity during their remaining occasional attacks that they no longer administered an acute intervention”. For the same compound, the attack frequency ([5]; patient S5, chronic form, 30 μg/kg per os ×3) was “pronounced reduction of attack frequency” and the “continuous period of attack quiescence” value ([5]; patient S5, 30 μg/kg per os ×3) was “greater than 4 week”.
